From a melting point compilation (Tetko et al.; mined from patent text by program, amines drawn as free bases though some values may be those of a salt) come the findings set out here.

As a reminder, the melting point is the temperature, or range, at which the solid turns liquid.

The molecule `CCOC(=O)c1csnc1-c1ccc(Cl)cc1` came in with a melting point of 70.5 to 71.5 °C.

`COc1c(N2CC(F)[C@](C)(N)C2)c(F)cc2c(=O)c(C(=O)O)cn([C@@H]3C[C@@H]3F)c12` (stereo partly specified) came in with a melting point of 160 to 163 °C.

With `CC(C)Cn1c(CN)c(-c2ccccc2)c2cc(OCC(N)=O)ccc2c1=O`, the melting point fell in the range of 161 to 163 °C.

In turn, `O=C(Nc1cccc2c1C(=O)c1c-2n[nH]c1-c1ccc(C(=O)N2CCN(c3ccccn3)CC2)s1)NN1CCOCC1` gave a melting point of 201 to 202 °C.

`Cc1cc(C)c(Cc2nc(C)nc(Cl)c2C)c(C)c1` came in with a melting point of 82 to 84 °C.

In the case of `Cc1cc(N2CCCC2)c2ccc(I)cc2n1`, the melting point is 99 to 102 °C.

As for `C=CCNC(=O)N1CC(OCc2ccc(C(F)(F)F)cc2)C1`, the melting point worked out at 120 °C.

In the case of `COc1ccc2cccc(C#N)c2c1`, the melting point lay in the range of 62 to 66 °C.

Turning to `Cc1c(F)c(F)cc2c(=O)c(C(=O)O)cn(-c3ccc(F)c(O)c3)c12`, the melting point is > 280 °C.

`CCOC(=O)c1ccc2c(c1)CCC(COS(=O)(=O)c1ccc(C)cc1)C2` (stereo unspecified): the melting point lay within 76 to 78 °C.

The molecule `Fc1ccc(OCc2ccnc3c(Cl)cccc23)cc1` yielded a melting point of 144 to 145 °C.

For `COn1c(C#N)c(Br)c(Br)c1-c1ccc(Cl)c(Cl)c1`, the melting point is 145 to 150 °C.

In the case of `CCCCCCCCCCCCCCCNC(=O)OCCOCCOCCOC(=O)NCc1ccccn1`, the melting point lay in the range of 58 to 62 °C.

As for `CN(C)c1cccc2c(S(=O)(=O)Nc3ccc(Cl)cn3)cccc12`, the melting point fell in the range of 160 to 162 °C.

`CCCCCCCCCCCC1CCC(O)C(=O)O1` (stereo unspecified) showed a melting point of 95 to 96 °C.

With `C#CC1(OC(=O)c2ccccc2)C(COC(=O)c2ccc(Cl)cc2)OC(OC(=O)c2ccccc2)C1OC(=O)c1ccccc1` (stereo unspecified), the melting point was 66 to 68 °C.

In turn, `CCCCCS(=O)(=O)NC(=O)/C=C/c1ccc(OCCC(C)(C)O)cc1Oc1ncc(C(F)(F)F)cc1Cl` returned a melting point of 136 °C.

`CN(C)C(=O)c1ccc(NC=O)cc1S(N)(=O)=O`: the melting point lay in the range of 192 to 193 °C.

`CCOc1ncc(S(C)(=O)=O)cc1C(=O)O` had a melting point of 175 to 176 °C.

The molecule `CS(=O)CCC(NS(=O)(=O)c1ccc2c(c1)Sc1ccccc1O2)C(=O)O` (stereo unspecified) displayed a melting point of 160 to 170 °C.

`O=S(=O)(O)CCN1CCOCC1`: the melting point lay in the range of 68 to 78 °C.

`Fc1ccc(C2CCC3(CC2)OCCO3)cc1` gave a melting point of 51 to 53 °C.

For the molecule `CC(Oc1ccc2c(c1)C(O)C(Oc1cccnc1)CO2)c1ccc2ccccc2n1` (stereo unspecified), the melting point was 75 to 83 °C.

For the molecule `Cn1cncc1C(O)(c1ccc(Cl)cc1)c1ccc2c(c1)c(-c1cccc(Cl)c1)nc1nnnn12` (stereo unspecified), the melting point was determined as 139 °C.

In turn, `O=C1CCCCCCCCCCCCCCC1` registered a melting point of 67.7 °C.

`Cc1cc(=O)[nH]c2c(C)cc(Br)cc12`: the melting point was > 300 °C.

Turning to `CC1(c2cn(-c3c(Cl)cc(C(F)(F)F)cc3Cl)nc2C#N)CC1`, the melting point fell in the range of 138 to 139 °C.

In turn, `CS(=O)(=O)Nc1cc(C(F)(F)F)ccc1-c1cc(Oc2ccc3cccnc3c2)ncn1` returned a melting point of 203 to 204 °C.

For `O=c1[nH]c(=O)n(C2CC(Br)C(CBr)O2)cc1C=CBr` (stereo unspecified), the melting point was 153 °C.

`COC(=O)c1c(Cl)cc(Cl)c2cc(Cl)ccc12` displayed a melting point of 110 to 112 °C.

`O=C(c1ccccc1)c1ccc(OCCCCCCBr)c(Cl)c1` had a melting point of 58 °C.

`CC(=O)Nc1c(C(O)(C(F)(F)F)C(F)(F)F)cc(Cl)c2ccccc12`: the melting point lay in the range of 161 to 162 °C.

`COc1ccc(-c2oc3c(CC=C(C)C)c(OC4OC(CO)C(O)C(O)C4O)cc(O)c3c(=O)c2OC2OC(C)C(O)C(O)C2O)cc1` (stereo unspecified) gave a melting point of 231 to 233 °C.

`Cc1ccc(C(=O)NC(=S)NCc2ccccc2C(N)=O)cc1` had a melting point of 145 to 147 °C.

With `CSc1ccc(-c2coc3ncc(-c4nnc(C)o4)cc23)cc1`, the melting point lay in the range of 209 to 210 °C.

For `O=C1Nc2ccc(F)cc2C1c1ncnc2c1cnn2C1CCCCC1` (stereo unspecified), the melting point was 282 to 286 °C.

As for `COC(=O)c1cccc2c1Oc1c(cccc1C(=O)OC)N2`, the melting point was in the range of 145 to 146 °C.

With `N=C(N)N(CCCC(C=O)NC(=O)CNC(=O)CCc1ccccc1)C(=O)OCc1ccccc1` (stereo unspecified), the melting point fell in the range of 69 to 74 °C.

`CC(C)n1nc(-c2nc(-c3nc(-c4ccccc4)cs3)c(N)nc2-c2ccccc2)ccc1=O`: the melting point fell in the range of 240 to 242 °C.

In the case of `CCCCCc1ccc(CC(=O)c2ccc(O)cc2)cc1`, the melting point came to 112 °C.

Molecule `CC(=O)c1cccc2ccc(CC(=O)O)cc12` came in with a melting point of 131 to 132 °C.

The molecule `O=C(Cc1ccccc1)N1CCN(c2ccc(Cl)cc2)CC1` came in with a melting point of 93 to 94 °C.

`CCC1(CCCCN2CCN(c3cccc4c3OCCO4)CC2)C(=O)Nc2ccccc21` (stereo unspecified): the melting point fell in the range of 169 to 170 °C.

The molecule `Cc1nc(CC(O)Cn2cnc3c2c(=O)n(C)c(=O)n3C)no1` (stereo unspecified) registered a melting point of 148 to 150 °C.

`Cc1nc2c(OCc3c(Cl)cc(C(O)c4ccccc4)cc3Cl)cccn2c1Br` (stereo unspecified) displayed a melting point of 178 to 179 °C.

Regarding `c1ncc2ncncc2n1`, the melting point lay within 124 to 126 °C.

Regarding `CCNCCNc1ccc(NCCN(CC)CC)c2c1C(=O)c1c(O)ccc(O)c1C2=O`, the melting point was 161 to 163 °C.

In turn, `O=C(O)c1ccc2c(c1)Sc1ccc(Cl)cc1C2` showed a melting point of 294 to 295 °C.

As for `O=C(CSc1ncccn1)C12CC3CC(CC(C3)C1)C2`, the melting point lay within 100 to 101 °C.

Turning to `COc1ccc2c(c1)CC(C)(CN1CCC(c3ccccc3)CC1)NC2=O` (stereo unspecified), the melting point fell in the range of 93 to 95 °C.

Consider `Cc1ccc2nc3[nH]c(=O)[nH]c3cc2c1Cl`, for which the melting point is > 360 °C.

For `O=[N+]([O-])c1cc(OCc2ccccc2)ccc1CCBr`, the melting point lay in the range of 30 to 34 °C.

`CC(C)N1CC(COc2cccc3c(=O)[nH]ccc23)OC1=O` (stereo unspecified) showed a melting point of 215 to 216 °C.

The molecule `CN(C)c1nnc(NN)c(=O)[nH]1` registered a melting point of 264 to 266 °C.

In turn, `COc1ccc(NC(=O)N2CCc3cc(S(=O)(=O)N4CC(c5ccccc5)NC4=O)ccc32)cc1` (stereo unspecified) showed a melting point of 268 to 270 °C.

In turn, `CCOC(=O)Cc1c(-c2ccccc2)c2cc(COC(C)=O)c(COC(C)=O)cc2oc1=O` had a melting point of 95 to 96 °C.

`C=CC(=O)OCCOC(=O)Cc1cc(O)n2ncnc2n1` gave a melting point of 108 to 109 °C.

For `CC(C)(O)c1ccc2c(c1)SC(c1ccccc1)C(c1ccc3c(c1)NC(=O)CO3)=C2` (stereo unspecified), the melting point fell in the range of 241 to 245 °C.

The molecule `COc1cc(F)ccc1-c1c(/C=C/C(=O)O)c2ccccc2c(=O)n1C(C)C` came in with a melting point of 265 to 267 °C.

Molecule `CNC(=S)NCCS(=O)Cc1nc[nH]c1C` (stereo unspecified) gave a melting point of 139 to 140 °C.

For the molecule `CC(SCCS(=O)(=O)N(C)C)c1ccc2c(c1)OCO2` (stereo unspecified), the melting point fell in the range of 93 to 94.5 °C.

Consider `O=C(Cc1ccc(F)cc1F)c1ccc(Cl)nc1`, for which the melting point fell in the range of 93 to 95 °C.

In turn, `CSc1cnc2ccccc2c1` came in with a melting point of 40 °C.

Turning to `CCCCCCCCCCCCNC=C1C(=O)ON=C1C`, the melting point was determined as 57 °C.

On to `O=[N+]([O-])c1ccc(SSc2nccc(O)n2)c(C(Cl)(Cl)Cl)c1`, for which the melting point worked out at 174 °C.

For the molecule `O=C(Cc1ccccc1)c1ccc[nH]1`, the melting point lay in the range of 92 to 94 °C.

`COc1ccn2c(C)c(CCc3ccc4nc(O)oc4c3)nc2c1` registered a melting point of 255 to 257 °C.

In turn, `CCc1cccc(CC)c1NC(=O)NC1CCC(c2ccccc2)CC1` (stereo unspecified) showed a melting point of 247 to 249 °C.

Take `O=C(Cl)N1CC(Oc2cccc(C(F)(F)F)c2)C1`: the melting point lay within 72.5 to 74 °C.

Molecule `Cc1nc(-c2ccc(C#N)cc2)sc1C(=O)N[C@H](C)[C@](O)(Cn1cncn1)c1ccc(F)cc1F` registered a melting point of 109 to 111 °C.

For the molecule `CC(C)(C)COc1c(NCCCBr)c(=O)c1=O`, the melting point was 111 to 113 °C.

The molecule `COc1cc(C)nc(NC(=O)NS(=O)(=O)c2cccc(NC(=O)NC(C)(C)C)c2)n1` returned a melting point of 137 to 145 °C.

Take `O=C(O)c1cc(-c2ccncc2)c[nH]c1=O`: the melting point is > 300 °C.

In turn, `CC(=O)C1CCC2C3CCC4CC(F)CCC4(C)C3CCC12C` (stereo unspecified) returned a melting point of 154 to 155 °C.

Molecule `CCCC(Oc1cc(OC)ccc1C(=O)c1ccc(OCc2nc(-c3ccccc3)oc2C)cc1)C(=O)O` (stereo unspecified) showed a melting point of 139 to 140 °C.

As for `O=[N+]([O-])c1ccc(OCCOc2ccccc2)cc1`, the melting point fell in the range of 86 to 87 °C.

Take `O=C(O)Cc1ccc2c(c1)Nc1ccccc1S2`: the melting point is 202 °C.

The molecule `CCOCc1nc2c(N)nc3ccccc3c2n1CC1(N)CCOCC1` yielded a melting point of 53 to 63 °C.

`C#CCN1C(=O)C2CC2(c2ccc(N)cc2)C1=O` (stereo unspecified) displayed a melting point of 106 to 109 °C.

Consider `CCOC(=O)c1ccc(NC(=O)C=C(c2ccccc2)c2ccc(Cl)cc2)cc1`, for which the melting point was in the range of 173 to 175 °C.

Take `COc1cc2nc(N3CCN(C(=O)C4=CCCC4)CC3)nc(N)c2cc1OC`: the melting point was 256 to 258 °C.

`CNC(=O)C[C@@H]1N=C(c2ccc(Cl)cc2)c2c(sc(C)c2C)-n2c(C)nnc21` showed a melting point of 143 to 145 °C.

As to `O=c1[nH]c2ccccc2c(O)c1-c1csc(-c2ccncc2)n1`, the melting point was > 250 °C.

As for `CNS(=O)(=O)NCCNC(=O)[C@@H](C[C@H](O)[C@H](C)NC(=O)OC(C)(C)C)C(C)C`, the melting point is 75 to 95 °C.

In the case of `CCCCc1nc(CO)c(C(=O)O)n1Cc1ccc(-c2ccccc2C(=O)O)cc1`, the melting point was 130 to 140 °C.

`CSCCCN1C(=O)C(NC(=O)c2cc3ccccc3[nH]2)N=C(c2ccccc2)c2ccccc21` (racemic) showed a melting point of 216 to 221 °C.

In the case of `C[C@H](Cn1cnnn1)n1cnc2cc3c(=O)n(C4CC4)nnc3cc2c1=O`, the melting point was in the range of 245 to 246 °C.

Take `CS(=O)c1nnc(-c2ccc3occ(-c4ccc(OC(F)(F)F)cc4)c3c2)o1` (stereo unspecified): the melting point fell in the range of 134 to 135 °C.

The molecule `COc1cc(OC)c(C(=O)CCl)cc1C` displayed a melting point of 166 to 167 °C.

With `CCN(CC)CC1CCCCN1CCNC(=O)N1c2ccccc2NC(=O)c2cccnc21` (stereo unspecified), the melting point lay in the range of 146 to 148 °C.

`CCOc1nn(-c2ccccn2)cc1CCCOc1cccc(CC(=O)O)c1` had a melting point of 66 to 67 °C.
